Assay results as given in EPA's ToxValDB 9.5 (doi:10.2903/j.efsa.2006.72r).
Values after ≈ are worked out from the molar mass of the structure shown.

Experiments:
Cyprinodon variegatus = details: acute; duration: 96 hours; mortality
Daphnia magna = details: chronic/long-term; duration: 21 days; mortality
Mus musculus = details: chronic, duration: 2 years
Oryctolagus sp. = details: reproduction developmental; inhalation
Canidae = details: short-term; duration: 2 weeks; Dog Other
Folsomia candida = details: not reported; mortality
Rattus norvegicus = details: for LD50: acute, mortality; for NOAEL: histopathology: neoplastic
Anas platyrhynchos = details: short-term; oral; feed; mortality
Colinus virginianus = details: acute; oral; diet; mortality
Pimephales promelas = details: chronic/long-term; duration: 33 days; growth
Oncorhynchus mykiss = details: acute; duration: 96 hours; mortality
Landoltia sp. = details: acute; duration: 14 days; mortality

SMILES	LC50 (Cyprinodon variegatus) [mg/L]	NOEC (Daphnia magna) [mg/L]	NOAEL (Mus musculus; inhalation, histopathology: neoplastic) [mg/kg-day]	NOAEL (Mus musculus; oral, M/F) [mg/kg-day]	NOAEL (Oryctolagus sp.) [mg/L]	NOAEL (Canidae) [mg/kg-day]	LEL (Folsomia candida) [g/ha]	LC50 (Tagia sp.; acute, duration: 14 days, mortality) [mg/kg]	NOEC (Tagia sp.; chronic/long-term, duration: 56 days, reproduction) [mg/kg]	LD50 (Rattus norvegicus; inhalation) [mg/L]	LD50 (Rattus norvegicus; oral) [mg/kg]	NOAEL (Rattus norvegicus; chronic, duration: 2 years, oral, diet) [mg/kg-day]	NOAEL (Rattus norvegicus; subchronic, duration: 90 days, inhalation) [mg/kg-day]	LC50 (Anas platyrhynchos) [mg/kg-day]	LD50 (Colinus virginianus) [mg/kg]	NOEC (Pimephales promelas) [mg/L]	LC50 (Oncorhynchus mykiss) [mg/L]	LC50 (Landoltia sp.) [mg/L]
ClC=CCCl [1,3-Dichloropropene]	0.87 (≈ 7.84 µM)	0.0701	4.43	2.5	0.0908	20	329000	55.6	770	2.7	130	2.5	9.72	> 1260	140	0.032		
O=C(O)C=CCl [3-Chloroacrylic acid]											91						69.5 (≈ 653 µM)	0.26 (≈ 2.44 µM)
